Laboratory results reported in paper PMC7707092, “Discovery and characterization of ORM‐11372, a novel inhibitor of the sodium‐calcium exchanger with positive inotropic activity” (British Journal of Pharmacology, 2020).
pIC50: −log10 of the molar value. Values after ≈ are worked out from the molar mass of the structure shown. Like-named read-outs stand apart in the source and are kept apart here.

Key:
[1] = target: T1, human NCX 1.1 (Homo sapiens, UniProt P32418); assay: Fluorescence screening assay for hNCX 1.1 inhibition (reverse mode, Sf9 cells); assay type: cell-based; conditions: for pIC50: Sf9 cells expressing human NCX1.1, reverse mode, fluorescence, n=3 assays
T1 construct: expressed in transfected cells
Method: Spodoptera frugiperda (Sf9; RRID:CVCL_0549) cells are widely used for the transient and stable expression of recombinant proteins. Here, Sf9 cells were stably transfected with human NCX 1.1 and maintained in spinner flasks with insect cell culture medium (TNM‐FH), supplemented with 10% FBS, antibiotic–antimycotic solution, and 50 μg·ml^−1 of blasticidin at 28°C in a non‐humidified, CO2‐free atmosphere. The Sf9 cell suspension was subcultured three times a week.
NCX reverse mode activity was stimulated via a 50% dilution of the extracellular Na^+ level using the internal pipettor of FLEXstation, a fluorescence imaging plate reader (Molecular Devices, USA), while simultaneously monitoring intracellular calcium levels. After dilution, the concentration of other ions remained the same, but Na^+ concentration was diluted to the half of original concentration of 172 to 86 mM. For Sf9 insect cells, normal extracellular Na^+ ion concentration is 172 mM. Typically, 50 μl of a solution containing 150,000–200,000 Sf9–NCX cells was loaded onto each well of a 96‐well plate. Cells were preincubated with the intracellular calcium dye Fluo‐4 and Fluo‐6, and the concentrations of the test compound (three replicates) were determined for about 1 h at room temperature before experimentation. The extracellular solution contained (in mM) 172 NaCl, 10 HEPES, 1 CaCl2, 1.2 MgCl2, 0.33 NaH2PO4, 5 glucose, and 5 probenecid. The pH was adjusted to 7.4 with NaOH. The extracellular Na^+ was diluted by the addition of a Na^+‐free extracellular solution (containing in mM: 147 N‐methyl‐D‐glucamine (NMDG), 10 HEPES, 1 CaCl2, 1.2 MgCl2, 0.33 NaH2PO4, and 5 glucose with the pH adjusted by HCl to 7.4)‐induced robust and reproducible elevation of intracellular calcium. The osmolarity of both solutions was adjusted to 340–355 mOsm in order to match the Sf9 cell media osmolarity. In each plate, the IC50 determination for each test compound was based on relative fluorescence changes in comparison with control and 5‐mM nickel acetate‐induced NCX inhibition.

[2] = target: hNCX1 (Homo sapiens, UniProt P32418); assay: Confirmatory fluorescence assay for hNCX1 inhibition (forward mode, HEK293 cells, Charles River); assay type: cell-based; conditions: HEK293, forward mode, Table S2; read-out: hNCX1-HEK IC50
Method: A confirmatory hNCX1 inhibition assay was performed in Charles River Laboratories, Cleveland. Briefly, HEK293 cells stably expressing hNCX1 were plated in 384‐well black wall, clear‐bottom microtitre plates and the next day loaded with Fluo‐8 for 30 min at 37°C. A plate was inserted into a FLIPR^TETRA, and a baseline was recorded during a preincubation period where test compound or vehicle in a Na^+‐free HB‐PS containing thapsigargin (6 μM) and […] (30 μM) was added to each well for ~5 min. Next, the NCX1 stimulation period was recorded in which Na^+‐containing HB‐PS (with 2‐μM thapsigargin and 10‐μM FCCP) was added. The experiments were performed at room temperature. The kinetic data generated were reduced for each well to maximum relative fluorescence units (RFU) minus minimum RFU after subtracting bias based on the first sample. The mean of the max–min RFU values during the stimulation period for the 3–4 replicates at each concentration on a plate was then plotted versus concentration and fitted to a Hill equation.

[3] = Solubility; assay type: physicochemical; conditions: pH 7.4 phosphate buffer; for solubility: phosphate buffer, pH 7.4, aqueous buffer
[4] = system: NCX; parameters: method as in Jost et al., 2013; Kohajda et al., 2016; conditions: Dog, reference not given, ref Jost et al., 2013, Kohajda et al., 2016, cited from earlier work
[5] = system: L‐type calcium channel; assay: L‐type calcium channel inhibition, fluorescence assay in IMR‐32 cells; assay type: cell-based, human; conditions: KCl depolarization, n=4 assays, read-out: L‐type Ca^2+ IC50
Method: CHO cells stably expressing either hERG1a (KV11.1) channels (KCNH2; RRID:CVCL_H512) or human 5‐HT2B receptors were cultured at 37°C in a 5% CO2/95% air atmosphere in the Ham's Nutrient Mixture F‐12 (HAM F‐12) medium supplemented with 10% FBS (heat inactivated), 100 μg·ml^−1 of hygromycin B (Invitrogen), and 100 μg·ml^−1 of geneticin or 100 IU·ml^−1 of penicillin and 100 IU·ml^−1 of streptomycin, 25‐mM HEPES, 500 μg·ml^−1 of geneticin, and 250 μg·ml^−1 of Zeocin®. Adhered cells were detached using either Detachin® solution or trypsin and replated twice a week. HEK 293 (RRID:CVCL_0045) and IMR‐32 cells (CCL‐127; RRID:CVCL_0346) were cultured similarly but maintained instead in DMEM, supplemented with 10% FBS (heat inactivated), 100 IU·ml^−1 of penicillin and 100 IU·ml^−1 of streptomycin, and 25‐mM HEPES, and in the case of the IMR‐32 cell line, with minimum essential medium (MEM) non‐essential amino acids. IMR‐32 cells are derived from a human neuroblastoma and endogenously express L‐type (CaV1.x) calcium channel (Sher, Gotti, Pandiella, Madeddu, & Clementi, 1988).
Undifferentiated IMR‐32 cells were harvested, centrifuged, and resuspended in a probenecid‐Ringer solution consisting (in mM) 150 NaCl, 3 KCl, 1.2 MgCl2, 1 CaCl2, 20 HEPES, 5 glucose and 2.5 probenecid (pH 7.4 adjusted with NaOH, osmolarity 320–324 mOsm). We added 0.04% Pluronic F‐127 and Fluo‐4 to this solution, and after incubating the cells for 30 min at room temperature, these additives were removed from the probenecid‐Ringer solution by centrifugation and resuspension. The cell suspension was pipetted (250,000 cells in 75 μl per well) into a 96‐well plate, into which the test compound (75 μl per well at […] the final concentration; five concentrations with eight replicates) had already been added. The plate was centrifuged once (5 min, at 287 x g) to ensure that the cells were moved to the bottom of the wells. FLEXstation was then used to measure the increase in intracellular calcium at 37°C, following depolarization, which was induced by the addition (50 μl per well) of a KCl‐Ringer solution containing (in mM) 200 KCl, 20 CaCl2, 1.2 MgCl2, 20 HEPES and 2.5 probenecid respectively (pH adjusted to 7.4 with KOH, with an osmolarity of 320–324 mOsm).

[6] = target: hERG (Homo sapiens, UniProt Q12809); assay: hERG IC50 of Table 1 / Table S2 (method not assigned); assay type: cell-based; conditions: n=4 assays
[7] = system: healthy rats; assay: In vivo haemodynamics in healthy rats (supplement); parameters: species or system rat
Text: In vivo haemodynamics in healthy rats
Experimental Animals and General Study Protocol
Rat was selected to the study as it is the most widely used rodent species in the toxicology studies performed for the small molecules during the drug development. […]
All animal experiments were made according to European Community Guidelines for the use of experimental animals and approved by Finnish National Animal Experiment Board. All studies complied with the ARRIVE guidelines, (NC3Rs Reporting Guidelines Working Group, 2010).
Specific pathogen free animals were housed in half -barrier rooms where special protecting clothing for personnel was required. Animal rooms were cleaned regularly 3 times per week and cages and bottles were […]
changed regular intervals once a week. Temperature was maintained at 22 ± 2°C and humidity at 55 ± 15%.
Light-dark cycle was lights on from 06.00 to 20.00h.
Male Sprague-Dawley rats (Harlan, Netherlands B.V.) were housed in polycarbonate cages (Makrolon® IV with stainless steel wire mesh lids). Maximally 5 rats were housed per cage with aspen chip bedding (Tapvei Ky, Kaavi, Finland). Rats had free access to water (twice filtered, Espoon Vesi) and rodent diet (SDS RM1
(P) SQC pelleted diet, Special Diet Services Ltd, Witham, England). Acclimation period before experiments was at least 5 days. Healthy 10-12 weeks aged weighing 300-400 g rats were randomized to ORM-11372, dobutamine or vehicle group.
At the end of the haemodynamic experiments, rats were terminated with an overdose of pentobarbital.
Anesthesia and ventilation
Rats were anaesthetised with isoflurane (2.25-2.5 %, Baxter) in carbogen (95 % O2 and 5 % CO2) and nitrous oxide (1:1) using a small rodent ventilator (Ugo Basile 7025, ~10 ml/kg, 60 strokes/min). The rats were infused with 0.9 % NaCl in […] at the stabilization and baseline level. Animals were placed on a heating table (+38°C). Tracheas were cannulated.
Systemic blood (SP) and left ventricular pressures (LVP) were measured with pressure transducers (BP:
Isotec, Hugo Sachs Elektronic, Germany; LVP: Mikro-Tip transducer SPR-249, Millar Instruments, USA). The signal was amplified (DC-bridge amplifier type 660, Hugo Sachs Elektronik, Germany), digitised (I/O connector block type SCB-68, National Instruments, USA), recorded and analysed (IHME 1.0.9, Fision Ltd, Finland). Left ventricular inotropic effect (LV +dP/dtmax) and relaxation (LV -dP/dtmin) and heart rate (HR) were analysed from LVP signal.
Blood sampling for the evaluation of plasma levels of the drug
At the end of each infusion, the blood samples (300-500 µl) were taken into chilled EDTA polypropylene tube (CapiJect®, Terumo) and centrifuged (4000 rpm, 10 min, at 4°C). Plasma was immediately frozen in polypropylene tubes and stored at –20°C. ORM-11372 and dobutamine were extracted from plasma samples using a liquid–liquid extraction and analysed using liquid chromatography–tandem mass spectrometry (Agilent Technologies series 1100 liquid chromatographic system and a Sciex LC-MS/MS API 4000 mass spectrometry). The lower limit of quantification for total plasma concentrations were 32.0 and 5.00 ng/ml from total for ORM-11372 and dobutamine, respectively. […]
The effects of dobutamine on blood pressure varies partially due to the use of racemate as active ingredient in the pharmaceutical formulation. (-)-dobutamine is α1-agonist and therefore causes increases in cardiac output and peripheral resistance. (+)-dobutamine acts via β1- and β2-adrenoceptors which leads to increase in heart rate and reduction in blood pressure 16.
Figure S20 Haemodynamics in healthy rats
Effects of ORM-11372 and dobutamine on haemodynamics in isoflurane anesthetized 10-12 weeks aged male Sprague-Dawley rats (Harlan, Netherlands B.V.) weighing 300-400 g. Shown are mean ± SEM and individual effects on the left ventricular contractility (LV+dP/dtmax, panel A), relaxation (LV-dP/dtmax, panel B), heart rate (panel C), and systolic arterial blood pressure (SAP, paned D). […]

[8] = system: human ventricular trabeculae; conditions: 1 or 2 Hz; ORM‐11372 any tested concentration; dofetilide 0.1 μM (positive control)

Sequence of hERG (Q12809 whole entry): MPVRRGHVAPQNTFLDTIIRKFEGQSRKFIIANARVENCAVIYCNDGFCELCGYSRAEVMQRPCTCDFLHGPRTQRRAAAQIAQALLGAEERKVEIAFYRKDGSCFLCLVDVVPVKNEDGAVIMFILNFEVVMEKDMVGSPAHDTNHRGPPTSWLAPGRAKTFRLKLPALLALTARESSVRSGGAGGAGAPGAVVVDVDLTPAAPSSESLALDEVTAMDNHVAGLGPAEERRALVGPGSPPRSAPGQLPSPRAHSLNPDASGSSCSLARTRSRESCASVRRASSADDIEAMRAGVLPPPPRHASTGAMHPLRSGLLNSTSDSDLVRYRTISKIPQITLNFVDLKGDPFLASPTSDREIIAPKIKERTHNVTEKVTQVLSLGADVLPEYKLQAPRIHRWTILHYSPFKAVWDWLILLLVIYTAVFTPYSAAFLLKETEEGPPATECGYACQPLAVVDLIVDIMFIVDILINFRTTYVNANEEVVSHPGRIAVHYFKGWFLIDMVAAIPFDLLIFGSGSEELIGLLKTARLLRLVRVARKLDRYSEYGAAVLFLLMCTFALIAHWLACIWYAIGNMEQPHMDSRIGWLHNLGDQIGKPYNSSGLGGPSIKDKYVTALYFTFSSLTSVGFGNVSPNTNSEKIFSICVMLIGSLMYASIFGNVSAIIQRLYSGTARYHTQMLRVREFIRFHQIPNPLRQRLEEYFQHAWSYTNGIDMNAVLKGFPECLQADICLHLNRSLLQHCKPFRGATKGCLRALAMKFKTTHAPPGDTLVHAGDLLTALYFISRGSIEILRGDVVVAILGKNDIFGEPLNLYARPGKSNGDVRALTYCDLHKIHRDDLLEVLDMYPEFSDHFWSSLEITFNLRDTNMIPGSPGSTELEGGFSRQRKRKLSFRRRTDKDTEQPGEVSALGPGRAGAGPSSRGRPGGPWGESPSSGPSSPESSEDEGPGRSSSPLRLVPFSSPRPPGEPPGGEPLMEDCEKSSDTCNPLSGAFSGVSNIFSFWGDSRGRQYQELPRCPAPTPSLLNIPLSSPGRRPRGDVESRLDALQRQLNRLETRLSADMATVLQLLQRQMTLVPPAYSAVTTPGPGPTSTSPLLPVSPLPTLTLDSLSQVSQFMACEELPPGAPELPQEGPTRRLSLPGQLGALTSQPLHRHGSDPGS

Row | Compound | pIC50 [1] | solubility ([3]; read-out: Solubility class) [µg/mL] | pIC50 [6] | other results
1 | O=[N+]([O-])c1ccccc1-c1ccc(CNc2ccccc2)o1 [ORM‐11024] | 6.06 |  |  | 
2 | Fc1ccc(NCc2ccc(-c3ccc(Cl)cc3)o2)cc1Cl [ORM‐11190] | 6.69 |  |  | 
3 | Fc1ccc(NCc2ccc(-c3cccc(Cl)c3)o2)cc1Cl [ORM‐11217] | 6.68 | 10 to 100 (≈ 29.7 to 297 µM) | 4.84 | 
4 | O=[N+]([O-])c1ccccc1-c1ccc(CNc2ccc(F)c(Cl)c2)o1 [ORM‐120407, 3-chloro-4-fluoro-N-((5-(2-nitrophenyl)furan-2-yl)methyl)aniline] | 6.64 | < 10 | 5.68 | inhibition at 10 µM ([1]; 10 μM, fluorescence‐based assay, read-out: NCX1.1 inhibition): 87%; pIC50 [5]: 5.51; solubility ([3]; read-out: Solubility): < 10 µg/mL
5 | CC(CCc1ccc(O)cc1)NCCc1ccc(O)c(O)c1 (centres unmarked) [dobutamine, reference compound] |  |  |  | absolute maximum positive inotropic effect [7]: 59%; free plasma concentration achieving 25% positive inotropic effect [7]: 25 ± 1.6 nM; free plasma concentration at absolute maximum positive inotropic effect [7]: 199 ± 17 nM; free plasma concentration at the 10±2% (ORM-11372) / 16±3% (dobutamine) inotropic effect [7]: 16 ± 0.8 nM; positive inotropic effect ([7]; at free plasma concentration 4±0.3 nM (ORM-11372), 16±0.8 nM (dobutamine)): 16±3%; increase in heart rate ([7]; free plasma concentration 96 nM): 15±5%; increase in heart rate ([7]; free plasma concentration 848 nM): 25±7%; relaxation ([7]; free plasma concentrations 16 to 199 nM): no effects
6 | CN(CCOc1ccc(NS(C)(=O)=O)cc1)CCc1ccc(NS(C)(=O)=O)cc1 [dofetilide, reference compound] |  |  |  | STV and triangulation (pro‐arrhythmia markers) [8]: increased

Second part, led by results:

Row | pIC50 [1] | solubility ([3]; read-out: Solubility class) [µg/mL] | Compound | pIC50 [6] | other results
7 | 6.75 |  | O=[N+]([O-])c1ccc(Oc2ccc3c(c2)CCC(c2ccccc2)O3)nc1 (centres unmarked) [ORM-10103] |  | pIC50 [2]: 5.73; Solubility class [3]: Insoluble (insoluble less than 10 µg/ml); pIC50 ([4]; read-out: IC50 NCX forward): 6.02; pIC50 ([4]; read-out: IC50 NCX reverse): 6.11
8 | 6.81 |  | O=[N+]([O-])c1cccc(-c2ccc(CNc3ccc(F)c(Cl)c3)o2)c1 [ORM‐11023] |  | 
9 | 8.40 | < 10 | Fc1ccc(NCc2ccc(-c3ccccc3Cl)o2)cc1Cl [ORM‐11165] | 5.05 | pIC50 [5]: 5.70
10 | 7.51 | 10 to 100 (≈ 33 to 330 µM) | Fc1ccc(NCc2coc(-c3ccccc3)n2)cc1Cl [ORM‐11298] | < 5.00 | 
11 | 8.52 | < 10 | Fc1ccc(NCc2ccc(-c3ccccn3)o2)cc1F [ORM‐11817] | 5.62 | pIC50 [5]: 4.98
12 | 8.60 | < 10 | Fc1ccc(NCc2csc(-c3ccccc3Cl)n2)cc1F [ORM‐11863] |  | 
13 | 7.05 | 10 to 100 (≈ 34.9 to 349 µM) | Fc1ccc(NCc2ccc(-c3cccnc3)o2)cc1F [ORM‐11875] |  | 
